Legend:
MAP3K2 = molecular target: T1, MAP3K2 (Homo sapiens, UniProt Q9Y2U5); assay: DiscoverX scanMAX binding assay
T1 construct: purchased Eurofins (radiometric) / Eurofins DiscoverX scanMAX / Reaction Biology / SignalChem
How it was run: (§1)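 Single-dose (1 µM) binding screen; 403 WT human kinase panel; readout PoC, lower value = stronger displacement.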

MAP3K3 = molecular target: T2, MAP3K3 (Homo sapiens, UniProt Q99759); assay: DiscoverX scanMAX binding assay
T2 construct: purchased Eurofins (radiometric) / Eurofins DiscoverX scanMAX / Reaction Biology / SignalChem
T2 sequence (Q99759 whole entry): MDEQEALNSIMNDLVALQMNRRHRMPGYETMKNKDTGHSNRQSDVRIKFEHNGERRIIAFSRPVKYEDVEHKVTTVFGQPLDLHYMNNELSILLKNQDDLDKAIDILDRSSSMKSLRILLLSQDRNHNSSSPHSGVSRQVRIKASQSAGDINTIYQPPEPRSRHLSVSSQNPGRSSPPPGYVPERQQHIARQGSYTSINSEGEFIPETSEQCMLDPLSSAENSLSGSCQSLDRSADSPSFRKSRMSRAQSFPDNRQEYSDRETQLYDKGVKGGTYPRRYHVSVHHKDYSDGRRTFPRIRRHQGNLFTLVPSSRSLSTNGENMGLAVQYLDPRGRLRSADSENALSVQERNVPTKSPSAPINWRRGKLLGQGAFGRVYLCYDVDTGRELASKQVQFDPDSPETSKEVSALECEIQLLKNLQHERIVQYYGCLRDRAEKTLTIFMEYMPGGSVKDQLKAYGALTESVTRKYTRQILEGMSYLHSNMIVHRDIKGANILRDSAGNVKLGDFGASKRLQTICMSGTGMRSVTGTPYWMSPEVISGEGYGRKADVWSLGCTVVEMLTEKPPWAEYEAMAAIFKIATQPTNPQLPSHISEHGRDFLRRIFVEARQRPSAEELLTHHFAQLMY
How it was run: as §1

MAP4K5 = molecular target: T3, MAP4K5 (Homo sapiens, UniProt Q9Y4K4); assay: DiscoverX scanMAX binding assay; conditions: 1 μM
T3 construct: purchased Eurofins
How it was run: as §1

MEK4 = molecular target: T4, MEK4 (Homo sapiens, UniProt P45985); assay: DiscoverX scanMAX binding assay; conditions: 1 μM
T4 construct: purchased Eurofins (radiometric) / Eurofins DiscoverX scanMAX / Reaction Biology / SignalChem
T4 sequence (P45985 whole entry): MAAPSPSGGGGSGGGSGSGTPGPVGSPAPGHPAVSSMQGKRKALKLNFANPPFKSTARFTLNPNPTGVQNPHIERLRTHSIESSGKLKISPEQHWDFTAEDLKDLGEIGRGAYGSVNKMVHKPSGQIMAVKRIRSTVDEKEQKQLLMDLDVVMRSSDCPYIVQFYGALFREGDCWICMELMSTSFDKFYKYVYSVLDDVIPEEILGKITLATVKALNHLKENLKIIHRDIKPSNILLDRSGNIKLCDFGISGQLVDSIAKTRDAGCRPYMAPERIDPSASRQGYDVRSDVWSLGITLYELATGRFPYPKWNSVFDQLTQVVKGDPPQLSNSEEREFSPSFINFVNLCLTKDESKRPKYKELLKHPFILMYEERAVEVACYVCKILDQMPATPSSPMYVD
How it was run: as §1

MYLK4 = molecular target: T5, MYLK4 (Homo sapiens, UniProt Q86YV6); assay: DiscoverX scanMAX binding assay; conditions: 1 μM
T5 construct: purchased Eurofins (radiometric) / Eurofins DiscoverX scanMAX / Reaction Biology / SignalChem
How it was run: as §1

PAK4 = molecular target: T6, PAK4 (Homo sapiens, UniProt O96013); assay: DiscoverX scanMAX binding assay
T6 construct: purchased Eurofins (radiometric) / Eurofins DiscoverX scanMAX / Reaction Biology / SignalChem
How it was run: as §1

PAK6 = molecular target: T7, PAK6 (Homo sapiens, UniProt Q9NQU5); assay: DiscoverX scanMAX binding assay
T7 construct: purchased Eurofins (radiometric) / Eurofins DiscoverX scanMAX / Reaction Biology / SignalChem
T7 sequence (Q9NQU5 whole entry): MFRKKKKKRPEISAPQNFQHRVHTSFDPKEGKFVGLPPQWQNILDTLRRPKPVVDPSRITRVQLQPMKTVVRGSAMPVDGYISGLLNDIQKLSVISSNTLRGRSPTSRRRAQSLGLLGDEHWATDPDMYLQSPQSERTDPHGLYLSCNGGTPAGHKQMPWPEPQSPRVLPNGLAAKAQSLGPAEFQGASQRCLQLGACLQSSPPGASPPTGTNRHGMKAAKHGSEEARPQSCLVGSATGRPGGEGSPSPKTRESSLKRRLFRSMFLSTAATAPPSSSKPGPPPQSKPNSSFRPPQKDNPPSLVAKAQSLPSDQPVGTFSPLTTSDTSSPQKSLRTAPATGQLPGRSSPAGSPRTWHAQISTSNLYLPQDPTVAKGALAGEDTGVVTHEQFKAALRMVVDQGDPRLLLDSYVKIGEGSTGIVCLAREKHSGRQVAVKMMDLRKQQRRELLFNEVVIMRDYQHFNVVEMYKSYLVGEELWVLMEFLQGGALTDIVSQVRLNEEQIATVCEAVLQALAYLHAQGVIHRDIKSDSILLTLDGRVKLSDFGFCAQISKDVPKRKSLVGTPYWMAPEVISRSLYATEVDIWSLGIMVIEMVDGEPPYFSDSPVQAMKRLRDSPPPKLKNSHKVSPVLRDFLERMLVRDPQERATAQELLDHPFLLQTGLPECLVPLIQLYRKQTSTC
How it was run: as §1

PAK7 = molecular target: T8, PAK7 (Homo sapiens, UniProt Q9P286); assay: DiscoverX scanMAX binding assay
T8 construct: purchased Eurofins (radiometric) / Eurofins DiscoverX scanMAX / Reaction Biology / SignalChem
T8 sequence (Q9P286 whole entry): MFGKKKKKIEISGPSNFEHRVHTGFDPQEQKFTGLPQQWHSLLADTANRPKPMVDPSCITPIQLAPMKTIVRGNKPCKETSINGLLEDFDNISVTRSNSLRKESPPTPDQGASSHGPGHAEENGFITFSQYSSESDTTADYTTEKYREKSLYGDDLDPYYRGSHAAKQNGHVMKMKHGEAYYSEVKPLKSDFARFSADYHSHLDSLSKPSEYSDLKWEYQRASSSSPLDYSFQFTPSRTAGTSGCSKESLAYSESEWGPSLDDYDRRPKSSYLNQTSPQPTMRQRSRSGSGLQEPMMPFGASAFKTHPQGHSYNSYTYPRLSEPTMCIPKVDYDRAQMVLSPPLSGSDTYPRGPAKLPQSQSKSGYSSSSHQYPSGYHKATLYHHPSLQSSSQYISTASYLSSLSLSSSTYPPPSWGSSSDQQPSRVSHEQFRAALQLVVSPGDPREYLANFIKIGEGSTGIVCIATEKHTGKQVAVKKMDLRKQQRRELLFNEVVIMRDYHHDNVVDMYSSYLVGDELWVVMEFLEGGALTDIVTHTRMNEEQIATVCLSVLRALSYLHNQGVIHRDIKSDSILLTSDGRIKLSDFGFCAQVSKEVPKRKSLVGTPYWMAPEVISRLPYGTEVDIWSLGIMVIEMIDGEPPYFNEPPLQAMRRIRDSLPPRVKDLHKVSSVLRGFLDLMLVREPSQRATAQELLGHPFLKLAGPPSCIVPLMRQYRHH
How it was run: as §1

PIKfyve = molecular target: T9, PIKfyve (Homo sapiens, UniProt Q9Y2I7); assay: DiscoverX scanMAX binding assay; conditions: 1 μM
T9 construct: purchased Eurofins (radiometric) / Eurofins DiscoverX scanMAX / Reaction Biology / SignalChem
T9 sequence (Q9Y2I7 whole entry): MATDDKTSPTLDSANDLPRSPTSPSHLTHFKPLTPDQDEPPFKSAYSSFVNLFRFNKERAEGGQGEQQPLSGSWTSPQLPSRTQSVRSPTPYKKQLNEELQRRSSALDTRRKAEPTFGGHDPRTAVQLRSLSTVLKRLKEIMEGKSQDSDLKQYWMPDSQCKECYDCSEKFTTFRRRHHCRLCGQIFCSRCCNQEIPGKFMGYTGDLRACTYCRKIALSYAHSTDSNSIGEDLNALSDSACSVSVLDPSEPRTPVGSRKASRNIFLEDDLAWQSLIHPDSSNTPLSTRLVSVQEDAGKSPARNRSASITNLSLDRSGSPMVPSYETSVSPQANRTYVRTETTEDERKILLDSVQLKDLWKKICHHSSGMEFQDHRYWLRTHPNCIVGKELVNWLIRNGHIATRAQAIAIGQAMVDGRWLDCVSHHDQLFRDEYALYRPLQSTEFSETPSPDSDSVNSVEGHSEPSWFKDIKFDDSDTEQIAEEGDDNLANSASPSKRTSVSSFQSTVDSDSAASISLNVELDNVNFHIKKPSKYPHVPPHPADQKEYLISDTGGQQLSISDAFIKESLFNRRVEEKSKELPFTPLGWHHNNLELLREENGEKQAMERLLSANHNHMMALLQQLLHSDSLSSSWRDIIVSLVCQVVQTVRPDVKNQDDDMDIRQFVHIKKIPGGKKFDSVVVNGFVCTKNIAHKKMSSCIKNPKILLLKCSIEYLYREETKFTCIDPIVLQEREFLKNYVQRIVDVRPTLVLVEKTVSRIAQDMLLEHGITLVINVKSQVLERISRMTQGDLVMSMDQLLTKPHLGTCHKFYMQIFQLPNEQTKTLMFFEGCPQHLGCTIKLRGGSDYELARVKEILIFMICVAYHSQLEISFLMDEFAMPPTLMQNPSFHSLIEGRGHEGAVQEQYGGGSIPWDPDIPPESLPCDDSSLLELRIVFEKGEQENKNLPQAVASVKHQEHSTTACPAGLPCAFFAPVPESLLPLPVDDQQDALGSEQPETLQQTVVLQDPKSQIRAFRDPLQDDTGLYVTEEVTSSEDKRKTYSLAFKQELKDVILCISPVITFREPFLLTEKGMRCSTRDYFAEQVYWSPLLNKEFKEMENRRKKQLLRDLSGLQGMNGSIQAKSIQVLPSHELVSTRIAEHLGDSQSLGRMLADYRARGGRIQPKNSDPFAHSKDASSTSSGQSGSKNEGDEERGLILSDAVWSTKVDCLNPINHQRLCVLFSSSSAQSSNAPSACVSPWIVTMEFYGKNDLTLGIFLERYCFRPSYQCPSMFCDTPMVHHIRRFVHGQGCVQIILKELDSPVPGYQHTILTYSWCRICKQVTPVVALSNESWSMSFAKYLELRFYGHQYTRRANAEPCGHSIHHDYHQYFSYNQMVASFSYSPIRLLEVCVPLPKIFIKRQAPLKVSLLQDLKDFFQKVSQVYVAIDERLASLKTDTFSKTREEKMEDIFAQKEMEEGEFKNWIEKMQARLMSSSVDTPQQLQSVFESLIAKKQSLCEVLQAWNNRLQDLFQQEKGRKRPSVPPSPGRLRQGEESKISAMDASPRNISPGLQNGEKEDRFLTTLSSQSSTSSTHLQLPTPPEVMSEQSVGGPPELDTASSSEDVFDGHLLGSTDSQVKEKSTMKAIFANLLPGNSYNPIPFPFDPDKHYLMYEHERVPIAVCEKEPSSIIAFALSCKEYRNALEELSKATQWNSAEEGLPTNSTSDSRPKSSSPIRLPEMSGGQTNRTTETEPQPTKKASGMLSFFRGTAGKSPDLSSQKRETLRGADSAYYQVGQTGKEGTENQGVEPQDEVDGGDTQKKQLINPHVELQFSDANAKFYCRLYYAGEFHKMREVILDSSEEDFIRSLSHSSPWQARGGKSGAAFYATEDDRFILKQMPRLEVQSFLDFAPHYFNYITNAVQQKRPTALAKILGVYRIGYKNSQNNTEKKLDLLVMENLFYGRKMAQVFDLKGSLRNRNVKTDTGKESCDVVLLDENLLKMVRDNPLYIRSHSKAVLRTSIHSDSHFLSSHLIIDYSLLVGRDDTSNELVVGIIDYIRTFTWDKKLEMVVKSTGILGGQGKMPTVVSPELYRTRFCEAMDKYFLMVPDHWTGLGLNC
How it was run: as §1

PRKX = molecular target: T10, PRKX (Homo sapiens, UniProt P51817); assay: DiscoverX scanMAX binding assay
T10 construct: purchased Eurofins (radiometric) / Eurofins DiscoverX scanMAX / Reaction Biology / SignalChem
T10 sequence (P51817 whole entry): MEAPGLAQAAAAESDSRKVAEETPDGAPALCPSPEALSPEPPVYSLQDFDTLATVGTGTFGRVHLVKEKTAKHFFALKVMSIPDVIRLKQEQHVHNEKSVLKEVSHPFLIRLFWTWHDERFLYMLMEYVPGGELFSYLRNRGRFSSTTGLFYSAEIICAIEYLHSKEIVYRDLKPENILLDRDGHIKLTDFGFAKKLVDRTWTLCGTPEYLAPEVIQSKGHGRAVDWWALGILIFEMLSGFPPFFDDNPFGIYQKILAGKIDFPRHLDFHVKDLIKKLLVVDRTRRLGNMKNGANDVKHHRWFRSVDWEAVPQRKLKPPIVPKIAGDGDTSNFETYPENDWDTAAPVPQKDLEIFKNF
How it was run: as §1

RIPK5 = molecular target: T11, RIPK5 (Homo sapiens, UniProt Q6XUX3); assay: DiscoverX scanMAX binding assay; conditions: 1 μM
T11 construct: purchased Eurofins (radiometric) / Eurofins DiscoverX scanMAX / Reaction Biology / SignalChem
How it was run: as §1

TTBK1 [1] = test system: TTBK1; design: method as in earlier work; conditions: screened at 1 μM; cited from earlier work
TTBK2 = test system: TTBK2; design: method as in earlier work; conditions: screened at 1 μM; cited from earlier work
TTBK1 [2] = test system: TTBK1; design: method as in PMID 33944571; conditions: read-out: TTBK1 IC50 (Biogen biochemical assay); cited from earlier work
CDK11 = molecular target: T12, CDK11 (Homo sapiens, UniProt Q9BWU1); assay: DiscoverX scanMAX binding assay; conditions: 1 μM
T12 construct: purchased Eurofins (radiometric) / Eurofins DiscoverX scanMAX / Reaction Biology / SignalChem
How it was run: as §1

CDK8 = molecular target: T13, CDK8 (Homo sapiens, UniProt P49336); assay: DiscoverX scanMAX binding assay; conditions: 1 μM
T13 construct: purchased Eurofins (radiometric) / Eurofins DiscoverX scanMAX / Reaction Biology / SignalChem
How it was run: as §1

CHEK2 = molecular target: T14, CHEK2 (Homo sapiens, UniProt O96017); assay: DiscoverX scanMAX binding assay; conditions: 1 μM
T14 construct: purchased Eurofins (radiometric) / Eurofins DiscoverX scanMAX / Reaction Biology / SignalChem
How it was run: as §1

CSNK1D = molecular target: T15, CSNK1D (Homo sapiens, UniProt P48730); assay: DiscoverX scanMAX binding assay; conditions: 1 μM
T15 construct: purchased Eurofins (radiometric) / Eurofins DiscoverX scanMAX / Reaction Biology / SignalChem
How it was run: as §1

CSNK1E = molecular target: T16, CSNK1E (Homo sapiens, UniProt P49674); assay: DiscoverX scanMAX binding assay; conditions: 1 μM
T16 construct: purchased Eurofins (radiometric) / Eurofins DiscoverX scanMAX / Reaction Biology / SignalChem
How it was run: as §1

PRKCE = molecular target: T17, PRKCE (Homo sapiens, UniProt Q02156); assay: DiscoverX scanMAX binding assay; conditions: 1 μM
T17 construct: purchased Eurofins (radiometric) / Eurofins DiscoverX scanMAX / Reaction Biology / SignalChem
How it was run: as §1

AURKB = molecular target: T18, AURKB (Homo sapiens, UniProt Q96GD4); assay: DiscoverX scanMAX binding assay; conditions: 1 μM
T18 construct: purchased Eurofins (radiometric) / Eurofins DiscoverX scanMAX / Reaction Biology / SignalChem
How it was run: as §1

BRAF(V600E) = molecular target: T19, BRAF(V600E) (Homo sapiens, UniProt P15056, V600E); assay: DiscoverX scanMAX binding assay; conditions: 1 μM
T19 construct: purchased Eurofins (radiometric) / Eurofins DiscoverX scanMAX / Reaction Biology / SignalChem

CDC2L1 = molecular target: T20, CDC2L1 (Homo sapiens, UniProt P21127); assay: DiscoverX scanMAX binding assay; conditions: 1 μM
T20 construct: purchased Eurofins (radiometric) / Eurofins DiscoverX scanMAX / Reaction Biology / SignalChem
How it was run: as §1

CDC2L2 = molecular target: T21, CDC2L2 (Homo sapiens, UniProt Q9UQ88); assay: DiscoverX scanMAX binding assay; conditions: 1 μM
T21 construct: purchased Eurofins (radiometric) / Eurofins DiscoverX scanMAX / Reaction Biology / SignalChem
How it was run: as §1

GRK2 = molecular target: T22, GRK2 (Homo sapiens, UniProt P25098); assay: DiscoverX scanMAX binding assay; conditions: 1 μM
T22 construct: purchased Eurofins (radiometric) / Eurofins DiscoverX scanMAX / Reaction Biology / SignalChem
How it was run: as §1

HIPK1 = molecular target: T23, HIPK1 (Homo sapiens, UniProt Q86Z02); assay: DiscoverX scanMAX binding assay; conditions: 1 μM
T23 construct: purchased Eurofins (radiometric) / Eurofins DiscoverX scanMAX / Reaction Biology / SignalChem
How it was run: as §1

[3] = molecular target: T24, JAK3(JH1domain-catalytic) (Homo sapiens, UniProt P52333); assay: DiscoverX scanMAX binding assay; conditions: 1 μM
T24 construct: JAK3(JH1domain-catalytic); purchased Eurofins (radiometric) / Eurofins DiscoverX scanMAX / Reaction Biology / SignalChem
How it was run: as §1

NIK = molecular target: T25, NIK (Homo sapiens, UniProt Q99558); assay: DiscoverX scanMAX binding assay; conditions: 1 μM
T25 construct: purchased Eurofins (radiometric) / Eurofins DiscoverX scanMAX / Reaction Biology / SignalChem
How it was run: as §1

PFCDPK1(P.falciparum) = molecular target: T26, PFCDPK1(P.falciparum) (Plasmodium falciparum, UniProt P62344); assay: DiscoverX scanMAX binding assay; conditions: 1 μM
T26 construct: purchased Eurofins (radiometric) / Eurofins DiscoverX scanMAX / Reaction Biology / SignalChem
How it was run: as §1

PRKD2 = molecular target: T27, PRKD2 (Homo sapiens, UniProt Q9BZL6); assay: DiscoverX scanMAX binding assay; conditions: 1 μM
T27 construct: purchased Eurofins (radiometric) / Eurofins DiscoverX scanMAX / Reaction Biology / SignalChem
How it was run: as §1

PRKD3 = molecular target: T28, PRKD3 (Homo sapiens, UniProt O94806); assay: DiscoverX scanMAX binding assay; conditions: 1 μM
T28 construct: purchased Eurofins (radiometric) / Eurofins DiscoverX scanMAX / Reaction Biology / SignalChem
How it was run: as §1

[4] = molecular target: T29, RPS6KA5(Kin.Dom.2-C-terminal) (Homo sapiens, UniProt O75582); assay: DiscoverX scanMAX binding assay; conditions: 1 μM
T29 construct: RPS6KA5(Kin.Dom.2-C-terminal); purchased Eurofins (radiometric) / Eurofins DiscoverX scanMAX / Reaction Biology / SignalChem
How it was run: as §1

SNARK = molecular target: T30, SNARK (Homo sapiens, UniProt Q9H093); assay: DiscoverX scanMAX binding assay; conditions: 1 μM
T30 construct: purchased Eurofins (radiometric) / Eurofins DiscoverX scanMAX / Reaction Biology / SignalChem
How it was run: as §1

[5] = molecular target: T31, TYK2(JH1domain-catalytic) (Homo sapiens, UniProt P29597); assay: DiscoverX scanMAX binding assay; conditions: 1 μM
T31 construct: TYK2(JH1domain-catalytic); purchased Eurofins (radiometric) / Eurofins DiscoverX scanMAX / Reaction Biology / SignalChem
How it was run: as §1

Structure (SMILES): CC(C)(O)C#Cc1ccc2[nH]c3c(c2c1)-c1nc(N)ncc1CCC3 [AMG28, reference compound]
- binding, percent of control at 1 µM (MAP3K2; read-out: MAP3K2 % control at 1000nM): 3.7%
- percent of control (binding) at 1 µM (MAP3K3; read-out: MAP3K3 % control at 1000nM): 7.2%
- MAP4K5 % control at 1000nM / DiscoverX PoC value (MAP4K5): 6.6 % control
- MEK4 (MKK4) % control at 1000nM / DiscoverX PoC value (MEK4): 8.6 % control
- MYLK4 % control at 1000nM / DiscoverX PoC value (MYLK4): 2.8 % control
- binding, percent of control at 1 µM (PAK4; read-out: PAK4 % control at 1000nM): 5.7%
- percent of control (binding) at 1 µM (PAK6; read-out: PAK6 % control at 1000nM): 2.9%
- percent of control (kinase binding) at 1 µM (PAK7; read-out: PAK7 % control at 1000nM): 0.3%
- PIKFYVE % control at 1000nM / DiscoverX PoC value (PIKfyve): 0.4 % control
- percent of control (binding) at 1 µM (PRKX; read-out: PRKX % control at 1000nM): 4.3%
- RIPK5 % control at 1000nM / DiscoverX PoC value (RIPK5): 2.2 % control
- TTBK1 activity remaining (TTBK1 [1]): 8%
- TTBK2 activity remaining (TTBK2): 12%

Structure (SMILES): CC(C)(O)C#Cc1ccc2[nH]c3c(c2c1)-c1nc(N)ncc1CC3 [Compound 1]
- CDK11 % control at 1000nM (CDK11): 4.7 % control
- CDK8 % control at 1000nM (CDK8): 4.8 % control
- CHEK2 (CHK2) % control at 1000nM / DiscoverX PoC value (CHEK2): 7.9 % control
- CSNK1D % control at 1000nM / DiscoverX PoC value (CSNK1D): 3 % control
- CSNK1E % control at 1000nM / DiscoverX PoC value (CSNK1E): 6.2 % control
- MEK4 (MKK4) % control at 1000nM / DiscoverX PoC value (MEK4): 7.3 % control
- MYLK4 % control at 1000nM / DiscoverX PoC value (MYLK4): 9.4 % control
- PIKFYVE % control at 1000nM / DiscoverX PoC value (PIKfyve): 0 % control
- PRKCE % control at 1000nM (PRKCE): 3.1 % control

Structure (SMILES): CC(C)(O)C#Cc1ccc2[nH]cc(-c3ccnc(N)n3)c2c1 [Compound 3]
- AURKB % control at 1000nM (AURKB): 3.7 % control
- BRAF(V600E) % control at 1000nM (BRAF(V600E)): 6.5 % control
- CDC2L1 % control at 1000nM (CDC2L1): 4.3 % control
- CDC2L2 % control at 1000nM (CDC2L2): 6.6 % control
- CSNK1D % control at 1000nM / DiscoverX PoC value (CSNK1D): 8.4 % control
- GRK2 % control at 1000nM (GRK2): 9.1 % control
- HIPK1 % control at 1000nM (HIPK1): 9.4 % control
- JAK3(JH1domain-catalytic) % control at 1000nM [3]: 1.8 % control
- MAP3K2 % control at 1000nM (MAP3K2; 1 μM): 0.8 % control
- MAP3K3 % control at 1000nM (MAP3K3; 1 μM): 7.6 % control
- NIK % control at 1000nM (NIK): 9.4 % control
- PAK4 % control at 1000nM (PAK4; 1 μM): 8.3 % control
- PAK6 % control at 1000nM (PAK6; 1 μM): 6.7 % control
- PAK7 % control at 1000nM (PAK7; 1 μM): 0.4 % control
- PFCDPK1(P.falciparum) % control at 1000nM (PFCDPK1(P.falciparum)): 7.8 % control
- PRKCE % control at 1000nM (PRKCE): 6.8 % control
- PRKD2 % control at 1000nM (PRKD2): 8.3 % control
- PRKD3 (PKD3) % control at 1000nM / DiscoverX PoC value (PRKD3): 1.3 % control
- PRKX % control at 1000nM (PRKX; 1 μM): 3.5 % control
- RPS6KA5(Kin.Dom.2-C-terminal) % control at 1000nM [4]: 8.9 % control
- SNARK % control at 1000nM (SNARK): 1.7 % control
- TYK2(JH1domain-catalytic) % control at 1000nM [5]: 6.3 % control

— publication PMC10104807, “Modulation of tau tubulin kinases (TTBK1 and TTBK2) impacts ciliogenesis” (Scientific Reports, 2023)
